ChEMBL document CHEMBL5241113, “Total Heterologous Biosynthesis of Fungal Natural Products in Aspergillus nidulans” (2022)
≈ marks a conversion by molar mass, not a printed value.

Test system: Nematoda
Experiment: Nematocidal activity
Format: functional

| Structure (SMILES) | LC50 |
| --- | --- |
| CC(=O)O[C@@H](C)C[C@@H](O)[C@@H](C)[C@@H](O)[C@@H](C)C[C@H](C)[C@@H]1OC(=O)[C@H](C)NC(=O)C[C@@H](O)C[C@H](O)[C@H](C)C[C@H]1C | 0.5 µg/mL (≈ 0.916 µM) |
| CC(=O)O[C@H](C[C@H](C)O)[C@@H](C)[C@@H](O)[C@@H](C)C[C@H](C)[C@@H]1OC(=O)[C@H](C)NC(=O)C[C@@H](O)C[C@H](O)[C@H](C)C[C@H]1C | 0.5 µg/mL (≈ 0.916 µM) |
